The values below come from patent publication US20260015350A1, “AZAQUINAZOLINE PAN-KRAS INHIBITORS” (Mirati Therapeutics, Inc., priority 2022, published 2026).

Test [1] relates to KRas-mediated phosphorylation of ERK in A549 cells. The experiment in a line: Inhibition of KRas-mediated phosphorylation of ERK (Cisbio HTRF pERK), A549 cells. As to conditions: for inhibition at 0.1 µM / IC50: Homo sapiens; for inhibition at 0.1 µM: A549, 3 h; for IC50: HTRF pERK. Format: cell-based. The procedure:
(§1) Inhibition of KRas Phosphorylation of ERK (HTRF) by Exemplary Compounds of Formula (I) Cisbio HTRF Advanced PERK Assay Catalog #64[…] […] Add 10 mL of media to stop trypsinizing. Pipette the cells into a conical bottom 50 mL centrifuge tube and centrifuge 5 min×1000 rpm. […] Re-suspend the cell pellet in media, take a cell count, and then adjust the cell density using fresh media. […] Seed 6,000 cells into cell culture plate with 50 μL media. […] Use Tecan to complete the compound addition. Compounds start from 10 uM top, 3-fold dilution, and 10 doses. The final DMSO concentration is 0.8%. Dispensed 0.2 uM Trametinib as Min control. […] Incubate cell plate for 3 hrs in the incubator. […] Dilute 1 volume of 4× lysis buffer with 3 volumes of deionized water. […] Keep lysis buffer on the ice. […] At the end of the compound treatment, flick-off the media. […] Add 35 μL of lysis buffer per well using a Multidrop Combi. Then place on a plate agitator shaking at 300 rpm at 4° C. for 40 mins. […] Make up the HTRF antibody buffer. For each assay plate, mix 50 μL of d2-conjugate antibody with 950 μL of detection buffer. Similarly, mix 50 μL of Cryptate antibody with 950 μL of detection buffer. Then mix the two diluted antibodies together. […] Dispense 3.4 μL the antibody buffer to wells of an empty assay plate. Seal the plate and centrifuge plate 30 sec×1000 rpm. […] At the end of the 4° C. lysis, centrifuge the lysate plates 3 mins×1500 rpm. […] Use the Bravo to transfer 13.6 μL of lysate from cell culture plate to assay plate. Then incubate assay plate for 2 hrs at room temperature. 8. At the end of incubation, read plate on the Envision after centrifuging plate 30 sec×1000 rpm.
Background: TR-FRET usually uses a lanthanide donor and a delayed reading to cut background.

Test [2] concerns the target T1, KRas^G12V (Homo sapiens, UniProt P01116, G12V).
T1 construct: Biotinylated KRas (corresponding to amino acids 1-169, produced at Accelegan Inc.); biotin (biotinylated); purchased Accelegan Inc
The experiment in a line: KRas binding assay (TR-FRET tracer displacement), KRas G12V.

In test [3] the test system is KRas-mediated phosphorylation of ERK in H460 cells. The experiment in a line: Inhibition of KRas-mediated phosphorylation of ERK (Cisbio HTRF pERK), H460 cells. Type of test: cell-based. The note with it: for inhibition at 0.1 µM / IC50: Homo sapiens; for inhibition at 0.1 µM: NCI-H460, 3 h; for IC50: NCI-H460, HTRF pERK. The method, then:
as §1

Test [4] has as its target T2, KRas^G12R (Homo sapiens, UniProt P01116, G12R).
T2 construct: Biotinylated KRas (corresponding to amino acids 1-169, produced at Accelegan Inc.); biotin (biotinylated); purchased Accelegan Inc
The experiment in a line: KRas binding assay (TR-FRET tracer displacement), KRas G12R.

Test [5] concerns the target T3, KRas^G12D (Homo sapiens, UniProt P01116, G12D).
T3 construct: Biotinylated KRas (corresponding to amino acids 1-169, produced at Accelegan Inc.); biotin (biotinylated); purchased Accelegan Inc
In words: KRas binding assay (TR-FRET tracer displacement), KRas G12D.

Test [6] has as its system KRas-mediated phosphorylation of ERK in H727 cells. The experiment in a line: Inhibition of KRas-mediated phosphorylation of ERK (Cisbio HTRF pERK), H727 cells. Type of test: cell-based. As to conditions: for IC50: HTRF pERK. The procedure, abridged: (§2)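 Following a 3-hr exposure of cells to serially diluted compound (from 10 uM, 3-fold, 10 doses), cold lysis for 40 mins preceded a 2-hr room-temperature HTRF immunoassay for phosphorylated ERK.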

In test [7] the test system is KRas-mediated phosphorylation of ERK in AsPC-1 cells. In words: Inhibition of KRas-mediated phosphorylation of ERK (Cisbio HTRF pERK), AsPC-1 cells. The note with it: for IC50: HTRF pERK. Format: cell-based. A digest of the protocol:
as §2

Test [8] deals with KRas-mediated phosphorylation of ERK in H358 cells. The experiment in a line: Inhibition of KRas-mediated phosphorylation of ERK (Cisbio HTRF pERK), H358 cells. Type of test: cell-based. As to conditions: for inhibition at 0.1 µM / IC50: Homo sapiens; for inhibition at 0.1 µM: NCI-H358, 3 h; for IC50: NCI-H358, HTRF pERK. The method, then: as §1
For test [9], the system named is KRas-mediated phosphorylation of ERK in HCT116 cells. In words: Inhibition of KRas-mediated phosphorylation of ERK (Cisbio HTRF pERK), HCT116 cells. As to conditions: for inhibition at 0.1 µM / IC50: Homo sapiens; for inhibition at 0.1 µM: HCT-116, 3 h; for IC50: HCT-116, HTRF pERK. Type of test: cell-based. The procedure:
as §1

Setting [10] is: single point, 100 nM compound, 3 hrs, 0.1 µM.
[11] abbreviates: single point, 100 nM compound, 3 hrs.
[12] abbreviates: Homo sapiens, NCI-H727, H727 cells.
The mark [13] stands for this setting: Homo sapiens, ASPC1, AsPC-1 cells.

Each structure is given as a SMILES string. A value given as a limit tells only on which side of the number the result lay.

T2 sequence (P01116 1-169 isoform P01116-2 G12R): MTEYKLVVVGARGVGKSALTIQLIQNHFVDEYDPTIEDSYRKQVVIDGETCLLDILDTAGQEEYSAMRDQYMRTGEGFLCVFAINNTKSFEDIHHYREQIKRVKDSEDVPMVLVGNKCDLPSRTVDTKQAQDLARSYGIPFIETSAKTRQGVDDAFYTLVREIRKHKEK
T1 sequence (P01116 1-169 isoform P01116-2 G12V): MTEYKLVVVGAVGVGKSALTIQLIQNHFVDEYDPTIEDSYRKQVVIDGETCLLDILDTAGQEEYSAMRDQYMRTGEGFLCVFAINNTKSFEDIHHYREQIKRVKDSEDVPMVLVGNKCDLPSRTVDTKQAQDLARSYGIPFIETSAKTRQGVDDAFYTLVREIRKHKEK
T3 sequence (P01116 1-169 isoform P01116-2 G12D): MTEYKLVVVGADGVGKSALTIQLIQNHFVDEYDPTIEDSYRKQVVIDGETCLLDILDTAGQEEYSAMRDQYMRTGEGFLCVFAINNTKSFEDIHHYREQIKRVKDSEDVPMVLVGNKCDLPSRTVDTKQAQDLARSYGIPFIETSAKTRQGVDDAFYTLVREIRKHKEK

As usually defined, the IC50 is the point on the concentration scale where inhibition reaches its midpoint. A higher IC50 goes with a need for much substance. With `CCc1c(F)ccc2cc(O)cc(-c3ncc4c(N5CC6CCC(C5)C6C#N)nc(OC[C@@]56CCCN5C[C@H](F)C6)nc4c3F)c12` (single isomer, unassigned) [Example 560], the “Inhibition (HTRF % at 100 nM) of KRas-mediated Phosphorylation of ERK, A549” value in test [1] (setting [10]) was found to be 15%. For the same compound, the IC50 in test [2] worked out at 85 nM; in [4], 182 nM; in test [5], 262 nM; in test [6] (H727 cells), 724 nM; in [7] (AsPC-1 cells), 3100 nM. The “Inhibition (HTRF % at 100 nM) of KRas-mediated Phosphorylation of ERK, H460” value in test [3] (setting [10]) came to 10%. The “Inhibition (HTRF % at 100 nM) of KRas-mediated Phosphorylation of ERK, H727” value in [6] (single point, 100 nM compound, 3 hrs, H727 cells, 0.1 µM) was 8%. Moreover, the “Inhibition (HTRF % at 100 nM) of KRas-mediated Phosphorylation of ERK, AsPC-1” value in test [7] (single point, 100 nM compound, 3 hrs, AsPC-1 cells, 0.1 µM) is listed as 5%. The “Inhibition (HTRF % at 100 nM) of KRas-mediated Phosphorylation of ERK, H358” value in test [8] (setting [10]) was 4%. The “Inhibition (HTRF % at 100 nM) of KRas-mediated Phosphorylation of ERK, HCT116” value in [9] (setting [10]) is listed as 12%.

For orientation: inhibition means the change of the read-out against control, counted positive when it falls. For the compound `CCc1c(F)ccc2cc(O)cc(-c3ncc4c(NCc5cc(C(=O)N(C)C)nn5C5CCS(=O)(=O)C5)nc(OC[C@@]56CCCN5C[C@H](F)C6)nc4c3F)c12` (single isomer, unassigned) [Example 694], the inhibition at 0.1 µM in test [1] (setting [11]) is -8%; in test [3] (setting [11]), -3%; in test [8] (setting [11]), 9%; in [9] (setting [11]), -10%. The half-inhibitory concentration (IC50) in test [2] was 17 nM; in [4], 38 nM; in [5], 106 nM; in test [6] (setting [12]) it was 605 nM; in test [7] (setting [13]), 985 nM.

As for `CCc1c(F)ccc2cc(O)cc(-c3ncc4c(N5CCC[C@@](C)(O)C5)nc(N5CC(C)(N)C5)nc4c3F)c12` [Example 530, (R)-1-(2-(3-amino-3-methylazetidin-1-yl)-7-(8-ethyl-7-fluoro-3-hydroxynaphthalen-1-yl)-8-fluoropyrido[4,3-d]pyrimidin-4-yl)-3-methylpiperidin-3-ol], the inhibition at 0.1 µM in [1] (setting [11]) was 15%; in test [3] (setting [11]), 18%; in test [8] (setting [11]) it was 6%; in test [9] (setting [11]), -6%. For the same compound, the IC50 in test [2] stood at 66 nM; in [4], 91 nM; in test [5] it was 59 nM; in [6] (setting [12]), 4390 nM; in test [7] (setting [13]) it was 2770 nM.

For the compound `CCc1c(F)ccc2cc(O)cc(-c3ncc4c(N5CCC[C@@](C)(O)C5)nc(N5CC(N(C)C)C5)nc4c3F)c12` [Example 533, (R)-1-(2-(3-(dimethylamino)azetidin-1-yl)-7-(8-ethyl-7-fluoro-3-hydroxynaphthalen-1-yl)-8-fluoropyrido[4,3-d]pyrimidin-4-yl)-3-methylpiperidin-3-ol], the inhibition at 0.1 µM in [1] (setting [11]) was 27%; in [3] (setting [11]) it was 8%; in test [8] (setting [11]) it was -7%; in [9] (setting [11]), 8%. In addition, the IC50 in test [2] is 105 nM; in [4], 119 nM; in test [5], 72 nM; in [6] (setting [12]), 1970 nM; in test [7] (setting [13]) it was 1500 nM.

For the compound `CCc1c(F)ccc2cc(O)cc(-c3ncc4c(N5CCCC6(C5)NC(=O)NC6=O)nc(N5CC(N(C)C)C5)nc4c3F)c12` (centres unmarked) [Example 534, 7-(2-(3-(dimethylamino)azetidin-1-yl)-7-(8-ethyl-7-fluoro-3-hydroxynaphthalen-1-yl)-8-fluoropyrido[4,3-d]pyrimidin-4-yl)-1,3,7-triazaspiro[4.5]decane-2,4-dione], the inhibition at 0.1 µM in test [1] (setting [11]) is -19%; in [3] (setting [11]), -6%; in test [8] (setting [11]), -9%; in test [9] (setting [11]), -6%. Also, the concentration for half-maximal inhibition (IC50) in [2] turned out to be 5 nM; in [4], 2 nM; in [5], 7 nM; in [6] (setting [12]) it was 1620 nM; in [7] (setting [13]), 5810 nM.

For `CCc1c(F)ccc2cc(O)cc(-c3ncc4c(N5CCCn6nc(C(=O)N(C)C)cc6C5)nc(N5CC(N(C)C)C5)nc4c3F)c12` [Example 535, 5-(2-(3-(dimethylamino)azetidin-1-yl)-7-(8-ethyl-7-fluoro-3-hydroxynaphthalen-1-yl)-8-fluoropyrido[4,3-d]pyrimidin-4-yl)-N,N-dimethyl-5,6,7,8-tetrahydro-4H-pyrazolo[1,5-a][1,4]diazepine-2-carboxamide], the inhibition at 0.1 µM was -9% in test [1] (setting [11]), 16% in [3] (setting [11]), -8% in test [8] (setting [11]) and -3% in [9] (setting [11]). For the same compound, the IC50 in [2] was 27 nM; in test [4], 44 nM; in [5], 17 nM; in test [6] (setting [12]), 2190 nM; in test [7] (setting [13]), 1620 nM.

With `C#CC1(F)CCN(c2nc(OC[C@@]34CCCN3C[C@H](F)C4)nc3c(F)c(-c4cc(O)cc5ccc(F)c(CC)c45)ncc23)CC1` [Example 553, 5-ethyl-4-(4-(4-ethynyl-4-fluoropiperidin-1-yl)-8-fluoro-2-(((2R,7aS)-2-fluorotetrahydro-1H-pyrrolizin-7a(5H)-yl)methoxy)pyrido[4,3-d]pyrimidin-7-yl)-6-fluoronaphthalen-2-ol], the inhibition at 0.1 µM is 0% in test [1] (setting [11]), 0% in test [3] (setting [11]), 3% in [8] (setting [11]) and 6% in test [9] (setting [11]). Also, the concentration for half-maximal inhibition (IC50) in test [2] is 77 nM; in test [4], 79 nM; in test [5] it was 864 nM; in test [6] (setting [12]), 1630 nM; in [7] (setting [13]), 5160 nM.

`CCc1c(F)ccc2cc3[nH]ncc3c(-c3ncc4c(N5CCCC6(CNS(=O)(=O)N6)C5)nc(OC[C@@]56CCCN5C[C@H](F)C6)nc4c3F)c12` (some centres unmarked) [Example 872]: the 50% inhibitory concentration (IC50) turned out to be 581 nM in test [1]; 318 nM in test [3]; 1210 nM in [6] (setting [12]); 328 nM in test [7] (setting [13]); 197 nM in [8]; 636 nM in [9].

`CCc1c(F)ccc2cc(O)cc(-c3ncc4c(N5CC6CNCC6C5CO)nc(OC[C@@]56CCCN5C[C@H](F)C6)nc4c3F)c12` (stereo partly drawn) [Example 890, 5-ethyl-6-fluoro-4-(8-fluoro-2-(((2R,7aS)-2-fluorotetrahydro-1H-pyrrolizin-7a(5H)-yl)methoxy)-4-(1-(hydroxymethyl)hexahydropyrrolo[3,4-c]pyrrol-2 (1H)-yl)pyrido[4,3-d]pyrimidin-7-yl)naphthalen-2-ol]: the IC50 in [1], in test [3], in [6] (setting [12]), in test [7] (setting [13]), in test [8] and in test [9] was more than 10000 nM in each case.

As for `CCc1c(F)ccc2cc(O)cc(-c3ncc4c(N5CC6CCC(CCC(=O)N(C)C)(C6)C5)nc(OC[C@@]56CCCN5C[C@H](F)C6)nc4c3F)c12` (stereo partly drawn) [Example 913, 3-(3-(7-(8-ethyl-7-fluoro-3-hydroxynaphthalen-1-yl)-8-fluoro-2-(((2R,7aS)-2-fluorotetrahydro-1H-pyrrolizin-7a(5H)-yl)methoxy)pyrido[4,3-d]pyrimidin-4-yl)-3-azabicyclo[3.2.1]octan-1-yl)-N,N-dimethylpropanamide], the IC50 in test [1] is 246 nM; in test [3], 112 nM; in [6] (setting [12]), 571 nM; in test [7] (setting [13]) it was 580 nM; in test [8], 146 nM; in test [9] it was 211 nM.
